Test results: patent US7049116B2, “Engineered protein kinases which can utilize modified nucleotide triphosphate substrates” (Princeton University, priority 1997, dated 2006)
Entries after “also recorded” stand apart in the source; their conditions may differ.

Legend:
[1] = test system: NIH3T3 cells expressing v-Src; experiment: Anti-phosphotyrosine blots of pyrazolopyrimidine treated NIH3T3 cells (Examples 18-19); format: cell-based; details: FIG. 12B two left lanes
Description: Anti-phosphotyrosine blots of pyrazolo pyrimidine (2-6) (25 μM) treated NIH3T3 cells expressing v-Src kinase were performed by lysing cells in modified RIPA buffer according to the method of Coussens et al. (1985) Biol. 2753-2763. Cells were also treated for various times before lysis and antiphosphotyrosine detection. Proteins were separated by 12.5% SDS-PAGE and transferred to Protran BA85 (Schleicher-Schuell). The blot was probed with the antiphosphotyrosine monoclonal antibody 4G10 (obtained from Dr. Brian Druker, Oregon Health Sciences Center) and the bound antibody was detected via enhanced chemiluminescence (Pierce) following treatment with HRP-coupled goat anti-mouse antibody (VWR) according to the manufacturer's instructions.
The assays were performed by making anti-phosphotyrosine blots of pyrazolopyrimidine (26) (25 μM) treated NIH3T3 cells expressing either v-Src or v-Src (I338G) kinases were performed by lysing cells in modified RIPA buffer according to the method of Coussens et al. (1985) Biol. 2753-2763. […]
(§4) The blot was probed with the anti-phosphotyrosine monoclonal antibody 4G10 and the bound antibody was detected via enhanced chemiluminescence (Pierce) following treatment with HRP-coupled goat-anti-mouse antibody (VWR) according to the manufacturer's instructions.

[2] = test system: NIH3T3 cells expressing v-Src (I338G); experiment: Anti-phosphotyrosine blots of pyrazolopyrimidine treated NIH3T3 cells (Example 19); format: cell-based
Description: The assays were performed by making anti-phosphotyrosine blots of pyrazolopyrimidine (26) (25 μM) treated NIH3T3 cells expressing either v-Src or v-Src (I338G) kinases were performed by lysing cells in modified RIPA buffer according to the method of Coussens et al. (1985) Biol. 2753-2763. Cells were also treated for various times (in a cell culture CO2 incubator) before lysis and anti-phosphotyrosine detection. Proteins were separated by 12.5% SDS-PAGE and transferred to Protran BA85 (Schleicher-Schuell).
as §4

wild-type Fyn = wild-type Fyn (Homo sapiens, UniProt P06241); experiment: Peptide phosphorylation assay with [γ-32P]ATP (Example 13); format: biochemical; details: purified kinase; read-out: IC50 for inhibition of wild-type Fyn
Excerpt: To identify compounds that would not inhibit any existing cellular kinases, Applicant screened the panel of synthetic pyrazolo pyramidine analogs (1-6) against two closely related purified tyrosine kinases, v-Src and Fyn, in a peptide phosphorylation assay using [γ-^32P]

T339G Fyn = molecular target: T1, T339G Fyn (Homo sapiens, UniProt P06241, T342G); experiment: In vitro kinase inhibition assay; format: biochemical
T1 construct: GST; made in house; host or cells: E. coli DH5α (pGEX-KT)

PKCδ = molecular target: T2, PKCδ (Homo sapiens, UniProt Q05655); experiment: In vitro kinase inhibition assay; format: biochemical; design: dose or concentration left out as unconfirmed
T2 construct: 6-His; made in house; host or cells: Bac-to-Bac baculovirus system (pFastBac B vector)
Description: (§1) IC50's for non-src family kinases were measured equivalently with the following exceptions. […] An optimized Abl substrate, […] (SEQ ID NO: 18), 133 mg/ml) was used for Abl assays.

[3] = test system: WT v-Src transformed NIH3T3 cells; experiment: Inhibition of v-Src in NIH3T3 fibroblasts (phosphotyrosine blot); format: cell-based; details: 100 μM, twelve hours
Description: (§2) Non-transformed NIH3T3 cells, WT v-Src transformed NIH3T3 cells, and I338G v-Src transformed NIH3T3 cells were incubated at 37° C. with 1.1% DMSO or 100 μM (3g) in 1.1% DMSO. After twelve hours, the cells were washed with PBS and lysed (lysis buffer: 1% Triton x-100, 50 mM tris (pH 7.4), 2 mM EDTA, 150 mM NaCl, […], 2 mM sodium orthovanadate, 10 mg/ml leupeptin, 10 mg/ml apoprotin). The lysate was clarified by centrifugation at 13,000 rpm for fifteen minutes. Lysate protein concentrations were normalized and equal volumes of the lysate were resolved electrophoretically and analyzed for phosphotyrosine content as described above.

[4] = test system: I338G v-Src transformed NIH3T3 cells; experiment: as above; format: cell-based
Description: as §2

PKA = molecular target: T3, PKA (Homo sapiens, UniProt P17612); experiment: In vitro kinase inhibition assay; format: biochemical; details: concentrations up to 300 mM
T3 construct: purchased Pierce
Description: as §1

[5] = test system: WT v-Src transformed NIH-3T3 fibroblasts; experiment: Microscopy of transformed fibroblasts (light microscopy, phalloidin-FITC); format: cell-based; details: 100 μM, 48 hours
Description: (§3) Non-transformed, WT v-Src transformed, and I338G v-Src transformed NIH-3T3 fibroblasts were grown in DMEM/10% BCS on tissue culture treated slides. v-Src expressing cells were treated with either 1.1% DMSO or 100 μM (^3g) in 1.1% DMSO. After forty-eight hours cells were photographed at 400× magnification on an Nikon TMS light microscope. Immediately following light microscopy, the cells were fixed for twenty minutes in 3.7% formaldehyde/PBS and permeabilized for sixty seconds in 0.2% Triton x-100 in PBS. Permeabilized cells were incubated with 200 ng/ml phalloidin-FITC/PBS for twenty minutes. Slides were rinsed with PBS and polymerized actin was visualized by fluorescence microscopy at 600× magnification on a Zeiss fluorescence microscope.

[6] = test system: I338G v-Src transformed NIH-3T3 fibroblasts; experiment: as above; format: cell-based; details: 100 μM, 48 hours
Description: as §3

I338G v-Src [7] = experiment: biochemical; design: species or system Rous sarcoma virus
I338G v-Src [8] = molecular target: T4, I338G v-Src (Rous sarcoma virus subgroup A, UniProt P00524, DEL77-225/I338G); experiment: biochemical
T4 construct: made in house; host or cells: E. coli DH5α (pGEX-KT)

T1 sequence (P06241 1-534 isoform P06241-2 T339G): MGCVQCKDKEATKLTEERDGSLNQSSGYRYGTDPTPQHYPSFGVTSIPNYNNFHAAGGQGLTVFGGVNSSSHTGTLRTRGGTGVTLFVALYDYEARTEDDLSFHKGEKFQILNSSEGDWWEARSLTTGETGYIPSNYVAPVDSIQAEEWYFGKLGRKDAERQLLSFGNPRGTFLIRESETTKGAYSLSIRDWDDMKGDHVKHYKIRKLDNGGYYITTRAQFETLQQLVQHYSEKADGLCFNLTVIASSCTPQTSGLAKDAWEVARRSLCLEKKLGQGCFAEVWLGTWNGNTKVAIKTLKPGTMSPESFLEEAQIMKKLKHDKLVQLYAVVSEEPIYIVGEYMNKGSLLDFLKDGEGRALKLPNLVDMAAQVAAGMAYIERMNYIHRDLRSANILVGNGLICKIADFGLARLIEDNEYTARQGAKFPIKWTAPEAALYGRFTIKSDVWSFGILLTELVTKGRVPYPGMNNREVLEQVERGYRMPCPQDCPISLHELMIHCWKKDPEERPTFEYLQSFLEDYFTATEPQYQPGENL
T2 sequence (Q05655 whole entry): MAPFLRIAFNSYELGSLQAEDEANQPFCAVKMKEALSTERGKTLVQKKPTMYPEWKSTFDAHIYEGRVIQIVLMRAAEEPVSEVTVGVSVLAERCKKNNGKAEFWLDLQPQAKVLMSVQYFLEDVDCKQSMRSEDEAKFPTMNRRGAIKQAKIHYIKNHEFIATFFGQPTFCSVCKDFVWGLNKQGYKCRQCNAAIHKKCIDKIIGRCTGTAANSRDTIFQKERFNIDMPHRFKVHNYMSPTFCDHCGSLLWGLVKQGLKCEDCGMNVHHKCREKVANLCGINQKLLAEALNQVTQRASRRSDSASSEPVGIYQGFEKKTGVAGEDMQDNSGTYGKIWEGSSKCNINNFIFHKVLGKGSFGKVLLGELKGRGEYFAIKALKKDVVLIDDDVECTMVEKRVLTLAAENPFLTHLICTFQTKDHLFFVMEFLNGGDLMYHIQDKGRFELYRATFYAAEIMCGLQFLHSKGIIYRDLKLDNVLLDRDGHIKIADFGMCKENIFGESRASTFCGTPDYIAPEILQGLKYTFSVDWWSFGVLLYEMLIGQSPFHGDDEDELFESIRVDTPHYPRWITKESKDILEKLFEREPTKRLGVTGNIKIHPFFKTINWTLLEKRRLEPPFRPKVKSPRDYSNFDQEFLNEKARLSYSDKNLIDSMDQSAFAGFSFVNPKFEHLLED
Chain of wild-type Fyn (P06241 whole entry, species assumed): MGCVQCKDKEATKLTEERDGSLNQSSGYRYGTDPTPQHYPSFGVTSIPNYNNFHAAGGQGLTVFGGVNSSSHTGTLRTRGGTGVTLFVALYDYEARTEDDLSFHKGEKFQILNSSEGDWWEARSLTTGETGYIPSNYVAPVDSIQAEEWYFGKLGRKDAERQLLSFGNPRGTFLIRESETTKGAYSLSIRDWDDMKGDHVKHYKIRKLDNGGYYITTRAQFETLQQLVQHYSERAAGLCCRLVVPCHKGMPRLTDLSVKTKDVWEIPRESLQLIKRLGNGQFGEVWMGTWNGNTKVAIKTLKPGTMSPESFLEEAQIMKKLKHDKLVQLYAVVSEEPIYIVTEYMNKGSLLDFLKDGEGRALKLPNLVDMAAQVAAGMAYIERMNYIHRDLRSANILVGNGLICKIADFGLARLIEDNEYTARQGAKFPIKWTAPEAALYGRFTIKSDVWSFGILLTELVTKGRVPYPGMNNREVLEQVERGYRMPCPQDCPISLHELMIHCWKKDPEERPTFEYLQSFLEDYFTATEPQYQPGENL

Compound: CC(C)(C)n1nc(-c2ccccc2)c2c(NC(=O)C3CCCC3)ncnc21 [Analog 3b, 4-cyclopentylamido-1-tert-butyl-3-phenylpyrazolo[3,4]pyrimidine]
- phosphoprotein band pattern [1]: does not inhibit wild type v-Src kinase
- 36 kDa phosphoprotein band ([2]; 100 μM): lost after treatment
- inhibitor concentration at which phosphorylation of the 36 kDa band reappears ([2]; inhibitor diluted): < 5 pM
- IC50 (wild-type Fyn): > 400000 nM

Compound: CC(C)(C)c1ccc(C(=O)Nc2ncnc3c2c(-c2ccccc2)nn3C(C)(C)C)cc1 [Analog 3g, 4-(p-tert-butyl)benzamido-1-tert-butyl-3-phenylpyrazolo[3,4-d]pyrimidine]
- IC50 (T339G Fyn): 830 nM
- selectivity for T339G Fyn over WT Fyn (T339G Fyn): greater than 300 fold
- inhibition of PKCδ (PKCδ): not detectably inhibited
- tyrosine phosphorylation in WT v-Src infected cells [3]: no loss of tyrosine phosphorylation
- cellular IC50 relative to the in vitro value [4]: roughly one-hundred times
- cellular level of phosphotyrosine ([4]; 100 μM, twelve hours): moderate overall decrease
- tyrosine phosphorylation of p36 ([4]; 100 μM, twelve hours): dramatic diminution; also recorded: blocks p36 phosphorylation
- IC50 ([4]; Mus musculus, NIH3T3, read-out: IC50 for p36 phosphotyrosine signal): 50000 nM
- inhibition of PKA (PKA): not detectably inhibited
- polymerized actin pattern (phalloidin-FITC) ([5]; fluorescence microscopy): indistinguishable from untreated WT cells
- cell morphology ([5]; light microscopy): prototypical rounded morphology and overlapping growth patterns of transformed cells
- polymerized actin pattern (phalloidin-FITC) ([6]; fluorescence microscopy): defined polymerized actin strings; also recorded: selectively regain actin stress fibers
- cell morphology ([6]; light microscopy): dramatic changes in cell morphology which are consistent with the reversal of transformation; also recorded: selectively acquire a flattened morphology
- selectivity for engineered v-Src over WT Fyn (I338G v-Src [7]; I338G v-Src vs WT Fyn): over 700 times
- selectivity for mutant v-Src as compared to wild type (I338G v-Src [7]; I338G v-Src vs WT v-Src): at least a thousand-fold
- IC50 (I338G v-Src [8]): 430 nM
- Ki (I338G v-Src [8]): ~400 nM
- mode of inhibition (I338G v-Src [8]; Lineweaver-Burk analysis): competitively with respect to ATP
